Values quoted from earlier work, collected in US20030157104A1, “Treatment of refractory human tumors with epidermal growth factor receptor antagonists” (priority 1999, published 2003).

Test system: FGFR
Conditions: Panek et al.

**Q.** For CCN(CC)CCOc1ccc(Nc2ncc3cc(-c4c(Cl)cccc4Cl)c(=O)n(C)c3n2)cc1 [PD166285, 6-(2,6-dichlorophenyl)-2-(4-(2-diethylaminoethoxy)phenylamino)-8-methyl-8H-pyrido(2,3-d)pyrimidin-7-one], which “inhibition of FGFR family of receptors” value is on record?
**A.** inhibits
